Results on 2 compounds are retold here after patent US20230406840A1, “N-(2-(3-CYANO-2-AZABICYCLO[3.1.0]HEXAN-2-YL)-2-OXOETHYL)QUINOLINE-4-CARBOXAMIDES” (AstraZeneca AB, priority 2022, published 2023).

In brackets after ≈: the same amount, converted by molar mass.

Data set [1] has as its target human Fibroblast activation protein alpha (hFAP) (Homo sapiens (Human), UniProt Q12884). Description: hFAP inhibition assay (tight binders). Format: biochemical. The following applies: tight-binder format, Ala-Pro-AMC 20 μM, 2.5 h incubation; n = 1 or geometric mean (n = 5-10). On the procedure:
Data were analyzed in Genedata Screener®.

The target of the next data set is FAP Human Plasma (Homo sapiens (Human), UniProt Q12884). Description: FAP plasma inhibition assay, human plasma. The class given is biochemical. The conditions noted are these: human plasma dilution 1:40, Ala-Pro-AMC 75 μM; n = 1.
For another data set, the target named is FAP Mouse Plasma (Mus musculus (Mouse), UniProt P97321). Description: FAP plasma inhibition assay, mouse plasma. The class given is biochemical. The following applies: mouse plasma dilution 1:67, Ala-Pro-AMC 75 μM; n = 1.
Data set [2] is described as follows: Metabolic stability in human liver microsomes (HLM). The class given is in vitro ADME. The protocol: Metabolic stability in HLM was measured as described in J Comput Aided Mol Des 2015, 29, 795.
The subject of a further data set is Rat Hepatocytes (rHep). Description: Metabolic stability in rat hepatocytes (rHep). Format: in vitro ADME. The protocol: Metabolic stability in rat hepatocytes was measured as described in J Comput Aided Mol Des 2015, 29, 795.
In a further data set the test system is Human Hepatocytes (hHep). The data set can be described thus: Metabolic stability in human hepatocytes (hHep). Format: in vitro ADME. The protocol:
Metabolic stability in human hepatocytes was measured as described in Xenobiotica 2010, 40, 637.

A short description of data set [3]: Caco-2 AB intrinsic permeability. Format: in vitro ADME. The conditions noted are these: human, A to B, read-out: Caco2 AB Intrinsic Papp. On the procedure:
(§1) Caco-2 cell permeability was measured as described in Mol/Pharm 2017, 14, 1601.
Background: Passage across Caco-2 layers is used to estimate intestinal permeability.

Data set [4] in a line: Caco-2 bidirectional (ABBA) permeability. Format: in vitro ADME. The conditions noted are these: human; for Papp A→B: A to B, read-out: Caco2 Bidirectional (ABBA) A to B Papp; for Papp B→A: B to A, read-out: Caco2 Bidirectional (ABBA) B to A Papp; for efflux ratio: read-out: Caco2 Bidirectional (ABBA) Efflux Ratio. On the procedure: as §1
A short description of another data set: Kinetic solubility. Format: physicochemical. The following applies: kinetic from dmso stock. The protocol:
Kinetic solubility was measured as described in Comput Aided Mol Des 2015, 29, 795.

The next data set concerns the target hFAP (Homo sapiens (Human), UniProt Q12884).

FAP Human Plasma, sequence (Q12884 24-760 limits assumed): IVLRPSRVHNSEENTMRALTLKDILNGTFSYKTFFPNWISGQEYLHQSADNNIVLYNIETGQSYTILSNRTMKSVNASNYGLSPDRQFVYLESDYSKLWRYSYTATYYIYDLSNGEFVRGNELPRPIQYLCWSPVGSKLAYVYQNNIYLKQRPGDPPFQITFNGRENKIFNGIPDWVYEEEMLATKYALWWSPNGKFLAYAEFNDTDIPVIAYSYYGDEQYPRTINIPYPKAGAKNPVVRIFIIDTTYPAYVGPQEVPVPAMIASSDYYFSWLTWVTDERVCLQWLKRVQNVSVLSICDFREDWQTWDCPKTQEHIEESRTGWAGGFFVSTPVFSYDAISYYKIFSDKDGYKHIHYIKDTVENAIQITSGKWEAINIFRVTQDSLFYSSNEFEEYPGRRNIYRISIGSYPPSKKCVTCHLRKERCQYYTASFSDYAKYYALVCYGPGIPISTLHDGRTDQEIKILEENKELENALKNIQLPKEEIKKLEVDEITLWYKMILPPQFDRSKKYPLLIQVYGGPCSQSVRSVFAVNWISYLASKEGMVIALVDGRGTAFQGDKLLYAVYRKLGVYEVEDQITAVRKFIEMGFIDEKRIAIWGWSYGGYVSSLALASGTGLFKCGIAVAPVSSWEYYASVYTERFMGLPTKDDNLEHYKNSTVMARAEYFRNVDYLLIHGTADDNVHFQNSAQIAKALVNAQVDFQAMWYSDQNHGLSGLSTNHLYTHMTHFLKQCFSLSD
hFAP, sequence (Q12884 38-760): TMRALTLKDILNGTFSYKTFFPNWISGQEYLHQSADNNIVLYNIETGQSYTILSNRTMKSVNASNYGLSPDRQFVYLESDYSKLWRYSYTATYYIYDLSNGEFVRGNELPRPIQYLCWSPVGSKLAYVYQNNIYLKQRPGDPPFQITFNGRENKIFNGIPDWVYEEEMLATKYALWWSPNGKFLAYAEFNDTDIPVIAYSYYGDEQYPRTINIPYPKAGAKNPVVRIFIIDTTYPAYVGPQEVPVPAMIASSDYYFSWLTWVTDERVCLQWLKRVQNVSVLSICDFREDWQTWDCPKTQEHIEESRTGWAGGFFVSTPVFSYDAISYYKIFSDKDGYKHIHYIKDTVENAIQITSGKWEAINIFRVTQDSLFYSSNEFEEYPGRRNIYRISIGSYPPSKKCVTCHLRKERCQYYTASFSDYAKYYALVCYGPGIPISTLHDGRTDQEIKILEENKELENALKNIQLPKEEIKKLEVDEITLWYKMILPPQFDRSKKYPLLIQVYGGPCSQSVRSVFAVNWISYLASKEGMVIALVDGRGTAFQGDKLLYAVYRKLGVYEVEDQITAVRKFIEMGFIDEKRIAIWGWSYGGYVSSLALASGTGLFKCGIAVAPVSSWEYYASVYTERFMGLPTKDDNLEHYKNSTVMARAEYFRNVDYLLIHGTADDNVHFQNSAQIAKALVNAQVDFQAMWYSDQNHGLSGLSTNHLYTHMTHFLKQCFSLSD
human Fibroblast activation protein alpha (hFAP), sequence (Q12884 38-760): as above
FAP Mouse Plasma, sequence (P97321 24-761 limits assumed): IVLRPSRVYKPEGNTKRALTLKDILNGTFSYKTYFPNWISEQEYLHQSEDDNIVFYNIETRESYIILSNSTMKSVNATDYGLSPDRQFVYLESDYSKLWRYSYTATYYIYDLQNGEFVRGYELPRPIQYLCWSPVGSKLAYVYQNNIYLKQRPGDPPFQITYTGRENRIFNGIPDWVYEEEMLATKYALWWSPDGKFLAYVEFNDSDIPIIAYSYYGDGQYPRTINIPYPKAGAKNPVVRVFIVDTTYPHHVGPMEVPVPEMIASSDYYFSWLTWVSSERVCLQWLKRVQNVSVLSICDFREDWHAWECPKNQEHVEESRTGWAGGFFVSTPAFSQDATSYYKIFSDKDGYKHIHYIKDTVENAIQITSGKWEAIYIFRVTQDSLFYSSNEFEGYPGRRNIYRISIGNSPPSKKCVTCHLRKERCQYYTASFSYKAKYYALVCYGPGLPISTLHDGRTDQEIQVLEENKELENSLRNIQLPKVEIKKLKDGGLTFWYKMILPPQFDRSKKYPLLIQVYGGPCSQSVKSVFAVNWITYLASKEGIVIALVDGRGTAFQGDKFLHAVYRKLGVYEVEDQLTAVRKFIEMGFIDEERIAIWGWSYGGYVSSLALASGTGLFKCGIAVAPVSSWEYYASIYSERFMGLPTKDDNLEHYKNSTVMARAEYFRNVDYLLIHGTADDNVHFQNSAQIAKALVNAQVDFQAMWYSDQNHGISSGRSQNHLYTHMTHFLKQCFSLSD

By IC50 is commonly meant the concentration needed to halve the response being measured. In general, microsomal CLint refers to the capacity of the preparation to metabolise the compound, expressed as a volume cleared per time. A higher microsomal CLint goes with faster metabolism. As a reminder, the Papp is the rate of passage across a membrane or cell layer, normalised by area and donor concentration. For orientation: Papp A→B means the apparent permeability from the apical to the basolateral side of a cell layer. As a reminder, the Papp B→A is how fast a substance crosses the layer from the basolateral side. What is called solubility is the concentration that dissolves in the medium under given conditions. A higher solubility goes with a readily soluble substance. As for `Cc1ccc2c(C(=O)NCC(=O)N3[C@H](C#N)C[C@@H]4C[C@@H]43)ccnc2c1` [Example 20, N-(2-((1S,3S,5S)-3-Cyano-2-azabicyclo[3.1.0]hexan-2-yl)-2-oxoethyl)-7-methylquinoline-4-carboxamide], the IC50 is 0.48 nM in data set [1], 1.6 nM at FAP Human Plasma, 0.73 nM on FAP Mouse Plasma and below 1.6 nM on hFAP. Besides, in data set [2], the microsomal CLint is below 3.2 µL/min/mg. The “rHeps CLint” value in the data set on Rat Hepatocytes (rHep) is below 2 μL/min/1E6. In addition, the “hHep CLint” value with Human Hepatocytes (hHep) is given as below 1 μL/min/1E6. For the same compound, the Papp in data set [3] is 60 ×10⁻⁶ cm/s. Moreover, the Papp A→B in [4] was 24 ×10⁻⁶ cm/s. Besides, in [4], the Papp B→A was found to be 19 ×10⁻⁶ cm/s. The efflux ratio in data set [4] amounted to 0.8. In “Kinetic solubility”, this compound yielded a solubility above 1000 µM.
Take `N#C[C@@H]1C[C@@H]2C[C@@H]2N1C(=O)CNC(=O)c1ccnc2cc(C3(C#N)CC3)ccc12` [Example 40, N-(2-((1S,3S,5S)-3-Cyano-2-azabicyclo[3.1.0]hexan-2-yl)-2-oxoethyl)-7-(1-cyanocyclopropyl)quinoline-4-carboxamide]: the IC50 amounted to 0.15 nM in [1], 4.1 nM on FAP Human Plasma, 2.8 nM against FAP Mouse Plasma and 0.49 nM against hFAP. Also, the microsomal CLint in data set [2] is below 3 µL/min/mg. Also, in the data set with Rat Hepatocytes (rHep), the “rHeps CLint” value turned out to be 2.6 μL/min/1E6. Also, the “hHep CLint” value in the data set with Human Hepatocytes (hHep) was below 1 μL/min/1E6. The Papp in data set [3] was 9.3 ×10⁻⁶ cm/s. Moreover, the Papp A→B in [4] amounted to 2.8 ×10⁻⁶ cm/s. Further, in data set [4], the Papp B→A turned out to be 28 ×10⁻⁶ cm/s. Besides, the efflux ratio in [4] is 10. The compound further had a solubility in “Kinetic solubility” of 570 µM (≈ 220 µg/mL).
